Read-outs that look alike come from different tables or passages of the source.
What was measured:
[1] = test system: human red blood cells (hRBCs); assay: Hemolytic activity assay; assay type: cell-based; conditions: 1 h; for lysis of RBCs (hemolysis): 200 μM peptide, 100% = 1% Triton X-100
Description: Equal volumes of peptides and hRBCs were mixed and incubated at 37 °C for 1 h. The supernatant was collected from the samples and tested for absorbance at 565 nm. Zero hemolysis (blank) was defined in PBS buffer, while 100% hemolysis was defined in 1% Triton X-100.
Hemolytic activity was evaluated by testing the ability of the peptides to cause lysis of human red blood cells (hRBCs), both in the presence and absence of the antimicrobial peptide. Blood samples were collected from healthy volunteers and treated with ethylenediaminetetraacetic acid (EDTA) to prevent coagulation. The hRBCs were then washed three times with phosphate-buffered saline (PBS) and pelleted by centrifugation at 800× g for 10 min. Next, the hRBCs were diluted in PBS to a final concentration of 10%. Peptides were serially diluted in PBS ranging from 400 µM to 3.13 µM, and an equal volume of 10% hRBC was added to each dilution. After incubation at 37 °C for 1 h, the supernatant was collected by centrifugation at 800× g for 10 min, and the absorbance at 565 nm was measured. Negative controls (PBS blank) and positive controls (1% Triton X-100 in PBS) were also included. The percentage of hemolysis was calculated using the following formula: %hemolysis = [(Asample − APBS)/(ATritonX-100 − APBS)] × 100%, where A is the absorbance under the specified conditions.

[2] = Calcein dye leakage assay, POPC:LPS LUVs; conditions: POPC:LPS (12.5:1) LUVs, final peptide concentration 2 μg/mL; n = 3
Description: Large unilamellar vesicles (LUVs) containing POPC:LPS (12.5:1, mol/mol) and POPC:cholesterol (2:1, mol/mol) were prepared using the extrusion method and an Avanti small-volume extrusion apparatus(Avanti Polar Lipids). To prepare the vesicles, phospholipids were dissolved in a chloroform/methanol mixture (4:1, v/v), evaporated using nitrogen gas, and suspended in PBS buffer. The lipid suspensions underwent six to eight cycles of freezing and thawing before being extruded ten times through a […] pore size polycarbonate filter, followed by ten times through a […] filter. Calcein-filled LUVs were also prepared by loading calcein-containing buffer (70 mM calcein and 10 mM Tris at pH 7.4) into a Sephadex G-75 column loaded with iso-osmotic buffer (100 mM sodium chloride and 10 mM Tris) to remove unencapsulated calcein. The phospholipid content of the vesicles was determined by assessing inorganic phosphate using the ammonium ferrothiocyanate method described by John Charles Marshall Stewart.
Calcein leakage induced by peptides was measured using a Perkin-Elmer luminescence spectrofluorimeter with excitation and emission wavelengths of 496 and 515 nm, respectively. Calcein-entrapped LUVs were diluted to a concentration of 10 µM. The maximum degree of leakage was induced by 100 mg/mL Triton X-100.
The degree of leakage induced by various peptide concentrations was calculated using the formula: Leakage % = ((F − F0)/(Fr − F0)) × 100%, where F0 and Fr represent the initial fluorescence intensities observed without peptide and after adding 100 mg/mL Triton X-100, respectively.

HaCaT cells = assay: Cell migration assay (in vitro wound healing assay); assay type: cell-based, human; conditions: 24 h
Description: Figure 3 Cell migration rate (In Vitro wound healing rate) of HaCaT cells induced by the designed peptides. […] (Bar: 200 μm) Results are presented as means ± standard deviations (SD); n = 3 (three independent experiments), ns = no significant differences; ** p < 0.01; *** p < 0.001; **** p < 0.0001 compared with PBS (Negative Control) and 100 ng/mL EGF (Positive Control).
For the Cell Migration Assay (in vitro wound healing assay), HaCaT cells (4 × 10^4 cells) were seeded on each side of an ibidi culture insert (ibidi, Germany) in DMEM medium supplemented with 10% fetal bovine serum. The inserts were placed into a 24-well plate and incubated at 37 °C and 5% CO2 overnight. After removing the inserts, 1 mL of serum-free DMEM medium supplemented with different concentrations of peptide was added. Medium without peptide and with 100 ng/mL EGF (epidermal growth factor) were used as negative and positive controls, respectively. The migration area was imaged at 0 and 24 h using an inverted fluorescent microscope (Zeiss/Observer Z1) at 10× magnification, and the area was quantified using ImageJ software(version 1.54g). The repairing rate was calculated using the formula: Repairing Rate = (Area0h-Area24h)/Area0h, where 0 h and 24 h represent the time points at which the images were taken.

[3] = test system: Both Gram-positive and -negative bacteria; assay: Geometric mean MIC, therapeutic index and fold changes of MIC, whole panel of strains; assay type: cell-based; conditions: for Therapeutic Index (TI) G−/+: HC10/GM, both Gram-positive and -negative bacteria; for weakening of antibacterial efficacy (MIC) / weakening of bactericidal efficacy (MIC): LYM broth; for weakening of bactericidal efficacy (MIC): 2.5 mM MgCl2; for folds higher MIC values than W5KA9W: in most bacteria strains
Description: In this study, we aimed to investigate the potential of W5K series peptides for therapeutic use. To evaluate their efficacy for antibacterial therapy, we used the Therapeutic Index (TI) as a measure of their cell selectivity. The TI was calculated as the ratio of the concentration causing 10% hemolysis of human red blood cells (HC10) to the geometric mean minimum inhibitory concentration (GM) of the peptides against both Gram-negative and Gram-positive bacteria. This parameter was used to quantitatively assess the balance between antibacterial potency and cytotoxicity among the W5K derivatives.
The antibacterial activities of the peptides in Müller-Hinton (MH) broth and modified LYM broth were determined using the standard broth microdilution method as per Clinical and Laboratory Standards Institute (CLSI) guidelines. The LYM broth was prepared with specific components and adjusted to different conditions, including varying concentrations of NaCl and MgCl2, and different pH levels. To prepare the LYM broth, 5.4 mM KCl, 5.6 mM Na2HPO4, 0.5 mM MgSO4, and 1.0 mM sodium citrate were added. Additionally, 0.4 mg of ZnCl2, 2.0 mg of FeCl3·6H2O, 0.1 mg of CuSO4·5H2O, 0.1 mg of MnSO4·H2O, 0.1 mg of Na2B4O7∙10H2O, 700 mg of amino acid mixtures without tryptophan (Takara Bio Inc., San Jose, CA, USA), and 20 mg of L-tryptophan were added per liter of medium. The pH was adjusted to 7.4, and a vitamin mixture (100X, Sigma) and glucose concentration of 2% were added. For different conditions of LYM broth, NaCl concentrations of 300, 200, 150, and 50 mM, MgCl2 concentrations of 2.5, 1.5, and 0.5 mM, and pH levels of 6.5, 5.5, and 4.5 were adjusted. Bacterial strains were incubated in MH broth overnight, regrown, and diluted to a final concentration of 5 × 10^5 CFU/mL. Peptides were added to each well at final concentrations of 50, 25, 12.5, 6.25, 3.13, 1.56, and 0.78 µg/mL, and 99 µL of diluted microbes was loaded into each well of a polypropylene 96-well plate. […] The Morpheus HeatMap software (https://software.broadinstitute.org/morpheus/) was used to display MIC values on a color scale. All experiments were independently repeated three times.

[4] = hRBCs in PBS, 37 °C, absorbance 565 nm
[5] = Both Gram-positive and -negative bacteria, MH broth, MIC >50 µg/mL counted as 100 µg/mL
[6] = hRBCs in PBS, 37 °C, absorbance 565 nm, 108.7 µg/mL(200 µM) used when no detectable hemolytic activity

Substance | lysis of RBCs (hemolysis) [1, 4] | calcein leakage [2] [%] | GM G−/+ (geometric mean of the MIC values) [3, 5] [µg/mL] | Therapeutic Index (TI) G−/+ [3] | weakening of antibacterial efficacy (MIC) ([3]; 300 mM NaCl) | HC10 (concentration that induced 10% hemolysis of human red blood cells) [1, 6] [µg/mL] | also measured
Ac-AKKKKWRKWLKWL-NH2 [Peptide W5K10] | less than 10% | 81 | 5.4 | 20.0 | up to 4 fold | – | wound healing effect (cell migration rate) (HaCaT cells; 4 µg/mL peptide): comparable wound healing effects
Ac-KKKKWRKWLKWLA-NH2 [Peptide W5K11] | ~27% | 85 | – | 21.2 | up to 3 fold | – | HC10 (concentration that induced 10% hemolysis of human red blood cells) ([1]; phosphate buffer): 71.0 µg/mL; wound healing effect (cell migration rate) (HaCaT cells; 4 µg/mL peptide): comparable wound healing effects; wound healing effect (cell migration rate) (HaCaT cells; serum-free DMEM, 0.25 µg/mL to 4 µg/mL, compared to the negative control): superior wound healing effect even at the lowest concentration of 0.25 µg/mL; GM G−/+ (geometric mean of the MIC values) [3]: 3.3 µg/mL; weakening of antibacterial efficacy (MIC) ([3]; MgCl2 rising above 0.5 mM): up to 2 fold
Ac-KKKWRKWLKWLAK-NH2 [Peptide W5K12] | ~30% | 82 | 3.4 | 12.4 | up to 4 fold | 41.7 | weakening of antibacterial efficacy (MIC) ([3]; MgCl2 rising above 0.5 mM): up to 2 fold
Ac-KKWRKWLKWLAKK-NH2 [W5K/A9W] | approximately 35% | 82 | 4.1 | 7.3 | up to 4 fold | 30.0 | wound healing effect (cell migration rate) (HaCaT cells; 4 µg/mL peptide): comparable wound healing effects; weakening of antibacterial efficacy (MIC) ([3]; MgCl2 rising above 0.5 mM): up to 2 fold
Ac-KWLAKKKKWRKWL-NH2 [Peptide W5K07] | – | – | 43.5 | 2.5 | – | – | –
Ac-KWLKWLAKKKKWR-NH2 [Peptide W5K04] | – | – | 35.4 | 3.1 | – | – | –
Ac-KWRKWLKWLAKKK-NH2 [Peptide W5K01] | ~25% | 74 | 15.4 | 4.6 | – | 70.9 | weakening of bactericidal efficacy (MIC) [3]: 4 fold; folds higher MIC values than W5KA9W ([3]; MH broth): 2–4 fold
Ac-LAKKKKWRKWLKW-NH2 [Peptide W5K09] | – | – | 50.0 | 2.2 | – | – | –
Ac-LKWLAKKKKWRKW-NH2 [Peptide W5K06] | – | – | 57.4 | 1.9 | – | – | –
Ac-RKWLKWLAKKKKW-NH2 [Peptide W5K03] | – | – | 33.0 | 3.3 | – | – | –
Ac-WLAKKKKWRKWLK-NH2 [Peptide W5K08] | – | – | 61.6 | 1.8 | – | – | –
Ac-WLKWLAKKKKWRK-NH2 [Peptide W5K05] | – | 69 | 20.3 | 5.4 | – | – | –
Ac-WRKWLKWLAKKKK-NH2 [Peptide W5K02] | ~34% | 78 | 12.5 | 1.3 | – | 16.7 | weakening of bactericidal efficacy (MIC) [3]: 4 fold; folds higher MIC values than W5KA9W ([3]; MH broth): 2–8 fold

— PMC12649549, “Sequence Permutation Generated Lysine and Tryptophan-Rich Antimicrobial Peptides with Enhanced Therapeutic Index” (Antibiotics, 2025)
